Assay results from patent publication US11800867B2, “Methods of repelling biting arthropods, reducing pathogen spread and treating arthropod infestation” (priority 2016, dated 2023).
Where “and” joins values, the source holds several entries; their conditions need not be identical. Identical values can stand only once.

Experiments:
Type in all cases: in vivo
[1] = tested on: dust mites (Dermatophagoides sp.); assay: Treated filter paper knockdown (KD) and mortality trial (Example 4); conditions: Nootkatone 1% in ethanol on filter paper
Method: (§1) A laboratory trial was conducted to assess the efficacy of nootkatone applied to filter paper against aphids (Schizaphis gramium), dust mites (Dermatophagoides sp.), termites (Reticulitermes flavipes), deer ticks (Ixodes scapularis), biting midges (Culicoides sp.), fire ants (Solenopsis invicta), and mosquitoes (Aedes aegypti and Culex), in terms of knockdown (KD) and mortality. One concentration (1% in ethanol) of nootkatone was assessed for most species, but three concentrations (0.25%, 0.5%, and 1% in ethanol) were assessed for mosquitoes. A negative control group, consisting of filter paper treated with ethanol, was also assessed for comparison purposes for each species.
(§2) Test systems were introduced to treated filter paper, allowed to dry, and then introduced into treatment chamber, where treated arthropods were monitored at intervals up to 72 hours. If 100% mortality was obtained prior to 72 hours, the individual study was halted.
(§3) Deer Ticks and Dust mites—5 replicates of 10 ticks or 35 dust mites were tested per treatment. Envelopes made from treated 2.5 inch (6.35 cm) filter paper squares served as the containers. After the ticks or dust mites were placed inside the envelopes, and the openings were sealed using small binder clips.
(§4) Readings were discontinued if treated mortality reaches […], or control mortality exceeds 20%.

[2] = tested on: deer ticks (Ixodes scapularis); assay: as above; conditions: Nootkatone 1% in ethanol on filter paper
Method: as §1, §2, §3, §4

[3] = tested on: bed bugs (Cimex lectularius); assay: Filter paper choice test of repelling action (Example 6)
Method: (§5) An in vitro laboratory trial was required to assess the repelling action of nootkatone applied to filter paper against cat fleas (Ctenocephalides felis), deer ticks (Ixodes scapularis), bed bugs (Cimex lectularius), and termites (Reticulitermes flavipes) in a choice test design.
(§6) The sponsor provided a sample of nootkatone (98%), which was diluted in ethanol to a 0.5% concentration. The treatment was applied to filter paper at a rate of 1 mL for a 9 cm filter paper disc, and a rate of 1.9 mL for a 15 cm filter paper disc. A negative control group, consisting of untreated filter paper, was also assessed for comparison purposes.
Bed bugs: Petri dishes (9 cm) were modified by cutting a circular hole in the bottom of a clean petri plate. Fine mesh nylon cloth was fastened to the bottom using adhesive, covering the hole. The petri plate was then inverted, with the screened bottom serving as the top. Treated and untreated filter papers were cut in half and fitted into the new bottom of the test containers. Treated replicates received one half treated and one half untreated filter paper; negative control replicates received only untreated filter paper.
Bed bugs: Bed bugs were placed in the center of each test container and covered with the fine-mesh lid. The containers were kept in darkness at ambient laboratory conditions for 24 hours. At the end of the exposure period, the distribution (on or under each filter paper) of bed bugs was recorded.
(§7) The number of insects in each location was converted to a percentage, for which the average and standard error were calculated across all five replicates.
(§8) Percent repellency was calculated with the following formula: % repellency=(1−((t/T)/(c/C)))*100 • Where t=number of insects on treated side of treated arena • T=total number of insects in treated arena • c=average number of insects on right side of untreated arenas • C=average total number of insects in untreated arenas

[4] = tested on: termites (Reticulitermes flavipes); assay: as above
Method: as §5, §6
(§9) Termites: One long glass tube with screened ends (to provide ventilation) was used for each test container. Test containers were placed into a larger container to prevent escapes, and were kept in darkness and at high humidity for the duration of the experiment. Treated and untreated filter papers were cut into strips and fitted inside the glass tubes. Treated replicates received one treated and one untreated paper; negative control replicates received two untreated strips. The two paper strips were pushed end to end to form one continuous strip, leaving a 2 mm gap running the entire length of the tube for viewing termite activity.
Termites: Termites were placed in the center of each test container and left to distribute undisturbed for 24 hours. At the end of the exposure period, the distribution (on or under each filter paper) of termites was recorded.
as §7, §8

[5] = tested on: aphids (Schizaphis gramium); assay: Treated filter paper knockdown (KD) and mortality trial (Example 4); conditions: Nootkatone 1% in ethanol on filter paper
Method: as §1, §2, §4

[6] = tested on: mosquitoes (Aedes aegypti and Culex); assay: Treated filter paper knockdown (KD) and mortality trial (Example 4), statements on both mosquito species
Method: as §1, §2
Midges and mosquitoes—5 replicates of 10 insects per treatment were tested. Inverted 10 ounce (295 ml) clear plastic cups with a 0.5 inch (1.27 cm) hole burned into the center of the bottom, and with the sides coated with Fluon® was used at the treatment containers. The bottoms of the containers consisted of Petri dish lids 3.54 inches (9.0 cm) in diameter lined with a treated filter paper circle the same diameter. The cup was placed over the filter paper in the lid and both were secured in place using 2 rubber bands. The insects were introduced through the hole in the cup, and a plastic disc was placed over the opening to prevent escapes.
as §4

[7] = tested on: termites (Reticulitermes flavipes); assay: Treated filter paper knockdown (KD) and mortality trial (Example 4); conditions: Nootkatone 1% in ethanol on filter paper
Method: as §1, §2
as §9, with “Termites—3 replicates of 10 termites were tested per treatment.” for “Termites:”, “Filter” for “Treated and untreated filter”, “Two” for “Treated replicates received one treated and one untreated paper; negative control replicates received two untreated strips. The two”
as §4

[8] = 0.5% nootkatone in ethanol on filter paper
[9] = 0.5% nootkatone in ethanol, 24 Hours post introduction, Replicates 1-5
[10] = 0.5% nootkatone in ethanol, 24 Hours post introduction, Replicates 1-3

What does the source list for C=C(C)[C@@H]1CCC2=CC(=O)C[C@@H](C)[C@]2(C)C1 [Nootkatone, nootkatone]?
Time required for greater than 90% killing [1]: 72 h; Means Affected ([1]; 72 hours post introduction): 100.0%; Means Dead ([1]; 72 hours post introduction): 100%; Means KD ([1]; 72 hours post introduction): 0.0%; Time required for greater than 90% killing [2]: 72 h; Means Affected ([2]; 24 hours post introduction): 100.0%; Means Dead ([2]; 24 hours post introduction): 36.0%; Means KD ([2]; 24 hours post introduction): 62.0%; Means Affected ([2]; 48 hours post introduction): 100.0%; Means Dead ([2]; 48 hours post introduction): 82.0%; Means KD ([2]; 48 hours post introduction): 16.0%; Means Affected ([2]; 72 hours post introduction): 100.0%; Means Dead ([2]; 72 hours post introduction): 100% and 98%; Means KD ([2]; 72 hours post introduction): 0.0%; Repellency (conclusion in words) [3, 8]: highly repellent; Raw data: number of bed bugs on Treated half of treated arena, per replicate [3, 9]: 0 (4×) and 1; Raw data: number of bed bugs on Untreated half of treated arena, per replicate [3, 9]: 10 (4×) and 9; Calculated percent repellency (average ± SE) ([3]; nootkatone (98%) 0.5% in ethanol on filter paper, half treated, half untreated arena, 24 hours): 93.9 ± 6.1%; Repellency (conclusion in words) [4, 8]: highly repellent; Raw data: number of termites on Treated strip of treated tube, per replicate [4, 10]: 0; Raw data: number of termites on Untreated strip of treated tube, per replicate [4, 10]: 10; Calculated percent repellency (average ± SE) ([4]; nootkatone (98%) 0.5% in ethanol on filter paper strips, one treated, one untreated, 24 hours): 100.0 ± 0.0%; Time required for greater than 90% killing [5]: 30 min; Means Affected ([5]; 30 minutes post introduction): 100.0%; Means Dead ([5]; 30 minutes post introduction): 100% and 94.0%; Means KD ([5]; 30 minutes post introduction): 6.0%; Mortality in mosquitoes ([6]; Nootkatone 0.25% in ethanol on filter paper, the lowest tested concentration): less than 80%; Time required for greater than 90% killing ([6]; Nootkatone 1% in ethanol on filter paper): 24 h; Affected (knockdown+mortality) mosquitoes in both species ([6]; Nootkatone 1% in ethanol on filter paper, by 8 hours post treatment): at least 80%; Mortality in mosquitoes during the experimental duration ([6]; Nootkatone at 1% concentration in ethanol on filter paper, both mosquito species): 94-100%; Mortality in both mosquito species ([6]; nootkatone 0.5% in ethanol on filter paper, by 72 hours post treatment): 82-95%; Time required for greater than 90% killing [7]: 72 h; Means Affected ([7]; 30 minutes post introduction): 0.0%; Means Dead ([7]; 30 minutes post introduction): 0.0%; Means KD ([7]; 30 minutes post introduction): 0.0%; Means Affected ([7]; 1 hour post introduction): 0.0%; Means Dead ([7]; 1 hour post introduction): 0.0%; Means KD ([7]; 1 hour post introduction): 0.0%; Means Affected ([7]; 4 hours post introduction): 0.0%; Means Dead ([7]; 4 hours post introduction): 0.0%; Means KD ([7]; 4 hours post introduction): 0.0%; Means Affected ([7]; 24 hours post introduction): 83.3%; Means Dead ([7]; 24 hours post introduction): 0.0%; Means KD ([7]; 24 hours post introduction): 83.3%; Means Affected ([7]; 48 hours post introduction): 86.7%; Means Dead ([7]; 48 hours post introduction): 86.7%; Means KD ([7]; 48 hours post introduction): 0.0%; Means Affected ([7]; 72 hours post introduction): 90.0%; Means Dead ([7]; 72 hours post introduction): 90%; Means KD ([7]; 72 hours post introduction): 0.0%
